Measurements as given in PMC10041525, “New Dual Inhibitors of Bacterial Topoisomerases with Broad-Spectrum Antibacterial Activity and In Vivo Efficacy against Vancomycin-Intermediate Staphylococcus aureus” (Journal of Medicinal Chemistry, 2023).
In brackets after ≈: the same amount, converted by molar mass. Like-named read-outs stand apart in the source and are kept apart here.

Columns and labels:
Format in all cases: cell-based
[1] = system: 100 A. baumannii strains (50 MDR, 50 non-MDR); experiment: MIC broth microdilution at IHMA Europe, panel of 100 strains; conditions: for MIC / MIC50 / MIC90: Acinetobacter baumannii; for MIC50: read-out: MIC 50; for MIC90: read-out: MIC 90
[2] = system: E. coli ATCC 35218; experiment: IHMA QC MIC; conditions: Escherichia coli, ATCC35218; read-out: MIC (QC, repeated tests)
Protocol: The panel of Hungarian clinical isolates and controls measured following the same method as detailed above, and albeit measurements were carried out in 384-well microtiter plates (Corning Inc.).

[3] = system: E. coli ATCC 25922; experiment: IHMA QC MIC; conditions: Escherichia coli, ATCC25922; read-out: MIC (QC, repeated tests)

C[C@@H](O)[C@H]1C(=O)N2C(C(=O)O)=C(S[C@@H]3CN[C@H](C(=O)N(C)C)C3)[C@H](C)[C@H]12 [Meropenem, meropenem]
MIC ([1]; A. baumannii IHMA 2157614, Australia 2020, Non-MDR, read-out: MIC): 0.25 µg/mL (≈ 0.652 µM)
MIC ([1]; A. baumannii IHMA 2177232, Lithuania 2020, MDR, read-out: MIC): > 16 µg/mL
MIC ([1]; A. baumannii IHMA 2177489, Lithuania 2020, MDR, read-out: MIC): > 16 µg/mL
MIC ([1]; A. baumannii IHMA 2178574, Ukraine 2020, Non-MDR, read-out: MIC): ≤ 0.06 µg/mL
MIC ([1]; A. baumannii IHMA 2180134, Malaysia 2020, Non-MDR, read-out: MIC): 0.25 µg/mL (≈ 0.652 µM)
MIC ([1]; A. baumannii IHMA 2180142, Malaysia 2020, MDR, read-out: MIC): > 16 µg/mL
MIC ([1]; A. baumannii IHMA 2181370, Morocco 2020, MDR, read-out: MIC): > 16 µg/mL
MIC ([1]; A. baumannii IHMA 2183729, Argentina 2020, MDR, read-out: MIC): > 16 µg/mL
MIC ([1]; A. baumannii IHMA 2183849, Argentina 2020, Non-MDR, read-out: MIC): 0.12 µg/mL (≈ 0.313 µM)
MIC ([1]; A. baumannii IHMA 2184382, Japan 2020, Non-MDR, read-out: MIC): 0.12 µg/mL (≈ 0.313 µM)
MIC ([1]; A. baumannii IHMA 2193375, Venezuela 2020, MDR, read-out: MIC): > 16 µg/mL
MIC ([1]; A. baumannii IHMA 2193485, Venezuela 2020, Non-MDR, read-out: MIC): 0.12 µg/mL (≈ 0.313 µM)
MIC ([1]; A. baumannii IHMA 2193607, Venezuela 2020, MDR, read-out: MIC): > 16 µg/mL
MIC ([1]; A. baumannii IHMA 2195460, Italy 2020, MDR, read-out: MIC): > 16 µg/mL
MIC ([1]; A. baumannii IHMA 2196914, South Africa 2020, MDR, read-out: MIC): > 16 µg/mL
MIC ([1]; A. baumannii IHMA 2196959, South Africa 2020, MDR, read-out: MIC): > 16 µg/mL
MIC ([1]; A. baumannii IHMA 2203763, Spain 2020, MDR, read-out: MIC): > 16 µg/mL
MIC ([1]; A. baumannii IHMA 2205144, Korea, South 2020, MDR, read-out: MIC): 16 µg/mL (≈ 41.7 µM)
MIC ([1]; A. baumannii IHMA 2206459, Taiwan 2020, MDR, read-out: MIC): > 16 µg/mL
MIC ([1]; A. baumannii IHMA 2206507, Taiwan 2020, Non-MDR, read-out: MIC): 0.12 µg/mL (≈ 0.313 µM)
MIC ([1]; A. baumannii IHMA 2212575, Hungary 2020, Non-MDR, read-out: MIC): 0.5 µg/mL (≈ 1.3 µM)
MIC ([1]; A. baumannii IHMA 2215307, Hong Kong 2020, Non-MDR, read-out: MIC): 0.25 µg/mL (≈ 0.652 µM)
MIC ([1]; A. baumannii IHMA 2216586, Taiwan 2020, MDR, read-out: MIC): > 16 µg/mL
MIC ([1]; A. baumannii IHMA 2223200, Colombia 2020, Non-MDR, read-out: MIC): 0.12 µg/mL (≈ 0.313 µM)
MIC ([1]; A. baumannii IHMA 2224017, Panama 2020, MDR, read-out: MIC): > 16 µg/mL
MIC ([1]; A. baumannii IHMA 2224303, Panama 2020, Non-MDR, read-out: MIC): 1 µg/mL (≈ 2.61 µM)
MIC ([1]; A. baumannii IHMA 2231797, Greece 2020, MDR, read-out: MIC): > 16 µg/mL
MIC ([1]; A. baumannii IHMA 2233099, Guatemala 2020, MDR, read-out: MIC): > 16 µg/mL
MIC ([1]; A. baumannii IHMA 2233430, Kazakhstan 2020, MDR, read-out: MIC): > 16 µg/mL
MIC ([1]; A. baumannii IHMA 2233548, Kazakhstan 2020, Non-MDR, read-out: MIC): 0.25 µg/mL (≈ 0.652 µM)
MIC ([1]; A. baumannii IHMA 2238964, Thailand 2020, MDR, read-out: MIC): > 16 µg/mL
MIC ([1]; A. baumannii IHMA 2239052, Thailand 2020, Non-MDR, read-out: MIC): 0.12 µg/mL (≈ 0.313 µM)
MIC ([1]; A. baumannii IHMA 2261047, Belgium 2020, MDR, read-out: MIC): > 16 µg/mL
MIC ([1]; A. baumannii IHMA 2261633, Canada 2020, Non-MDR, read-out: MIC): 0.12 µg/mL (≈ 0.313 µM)
MIC ([1]; A. baumannii IHMA 2274234, South Africa 2020, MDR, read-out: MIC): > 16 µg/mL
MIC ([1]; A. baumannii IHMA 2274364, South Africa 2020, MDR, read-out: MIC): > 16 µg/mL
MIC ([1]; A. baumannii IHMA 2275237, Chile 2020, Non-MDR, read-out: MIC): 0.25 µg/mL (≈ 0.652 µM)
MIC ([1]; A. baumannii IHMA 2275751, Jordan 2020, MDR, read-out: MIC): > 16 µg/mL
MIC ([1]; A. baumannii IHMA 2316205, United States 2020, MDR, read-out: MIC): > 16 µg/mL
MIC ([1]; MDR n = 50, read-out: MAX (maximum MIC; all strains inhibited)): > 16 µg/mL
MIC50 ([1]; MDR n = 50): > 16 µg/mL
MIC90 ([1]; MDR n = 50): > 16 µg/mL
MIC ([1]; MDR n = 50, read-out: MIN (minimum MIC)): 16 µg/mL (≈ 41.7 µM)
MIC ([1]; all isolates n = 100, read-out: MAX (maximum MIC; all strains inhibited)): > 16 µg/mL
MIC50 ([1]; all isolates n = 100): 1 µg/mL (≈ 2.61 µM)
MIC90 ([1]; all isolates n = 100): > 16 µg/mL
MIC ([1]; all isolates n = 100, read-out: MIN (minimum MIC)): ≤ 0.06 µg/mL
MIC ([1]; non-MDR n = 50, read-out: MAX (maximum MIC)): 1 µg/mL (≈ 2.61 µM)
MIC50 ([1]; non-MDR n = 50): 0.25 µg/mL (≈ 0.652 µM)
MIC90 ([1]; non-MDR n = 50): 0.25 µg/mL (≈ 0.652 µM)
MIC ([1]; non-MDR n = 50, read-out: MIN (minimum MIC)): ≤ 0.06 µg/mL
Percentage I ([1]; MDR n = 50): 0%
Percentage R ([1]; MDR n = 50): 100%
Percentage S ([1]; MDR n = 50): 0%
Percentage I ([1]; all n = 100, CLSI breakpoints): 0%
Percentage R ([1]; all n = 100, CLSI breakpoints): 50%
Percentage S ([1]; all n = 100, CLSI breakpoints): 50%
Percentage I ([1]; non-MDR n = 50): 0%
Percentage R ([1]; non-MDR n = 50): 0%
Percentage S ([1]; non-MDR n = 50): 100%
MIC [2]: ≤ 0.06 µg/mL
MIC [3]: ≤ 0.06 µg/mL
